Here are results for 18 compounds from ChEMBL document CHEMBL5725495, “Heterocyclylamines as PI3K inhibitors” (2017).

As a reminder, the IC50 is the concentration that gives 50% inhibition.

The assay in a line: A2 PI3Kdelta Scintillation Proximity Assay: Lipid kinase substrate, phosphoinositol-4,5-bisphosphate (PIP2), are purchased from Echelon Biosciences (Salt Lake City, Utah). PI3K isoforms α, β, δ and γ are purchased from Millipore (Bedford, Mass.). ATP, MgCl2, DTT, EDTA, MOPS and CHAPS are purchased from Sigma-Aldrich (St. Louis, Mo.). The kinase reaction are conducted in clear-bottom 96-well plate from Thermo Fisher Scientific in a final volume of 24 μL. Inhibitors are first diluted serially in DMSO and added to the plate wells before the addition of other reaction components. The final concentration of DMSO in the assay is 0.5%. The PI3K assays are carried out at room temperature in 20 mM MOPS, pH 6.7, 10 mM MgCl2, 5 mM DTT and CHAPS 0.03%. The reaction mixture is prepared containing 50 μM PIP2, kinase and varying concentration of inhibitors. Reactions are initiated by the addition of ATP containing 2.2 μCi [γ-33P]ATP to a final concentration of 1000 μM. The final concentration of PI3K isoforms α, β, δ and γ in the assay were 1.3, 9.4, 2.9 and 10.8 nM, respectively. Reactions are incubated for 180 minutes and terminated by the addition of 100 μL of 1 M potassium phosphate pH 8.0, 30 mM EDTA quench buffer. A 100 μL aliquot of the reaction solution are then transferred to 96-well Millipore MultiScreen IP 0.45 μm PVDF filter plate (The filter plate is prewetted with 200 μL 100% ethanol, distilled water, and 1 M potassium phosphate pH 8.0, respectively). The filter plate is aspirated on a Millipore Manifold under vacuum and washed with 18×200 μL wash buffer containing 1 M potassium phosphate pH 8.0 and 1 mM ATP. After drying by aspiration and blotting, the plate is air dried in an incubator at 37° C. overnight. Packard TopCount adapter (Millipore) is then attached to the plate followed with addition of 120 μL Microscint 20 scintillation cocktail (Perkin Elmer) in each well. After the plate sealing, the radioactivity of the product is determined by scintillation counting on Topcount (Perkin-Elmer). IC50 determination is performed by fitting the curve of percent control activity versus the log of the inhibitor concentration using the GraphPad Prism 3.0 software. Also on record: species or system Homo sapiens. (Scintillation proximity formats need no separation of bound from free tracer.)
Consider `COc1c([C@@H](C)n2nc(C)c3c(N)ncnc32)cc(Cl)c(C#N)c1C1CN(CC2CCOC2)C1` (stereo partly drawn), for which the half-maximal inhibitory concentration (IC50) was under 10 nM.
In the case of `COc1c(C(C)n2nc(C)c3c(N)ncnc32)cc(Cl)c(C)c1C1CN(C[C@H](C)O)C1` (stereo partly drawn) it was under 10 nM; in that of `COc1c([C@@H](C)n2nc(C(F)F)c3c(N)ncnc32)cc(Cl)c(F)c1C1CN(CCO)C1` (single isomer, unassigned), under 10 nM.
Then `CCOc1c([C@@H](C)n2nc(C)c3c(N)ncnc32)cc(Cl)c(F)c1C1CN(C(C)C)C1` (single isomer, unassigned), with under 10 nM; and `COc1c([C@H](C)n2nc(C)c3c(N)ncnc32)cc(Cl)c(C#N)c1C1CN(C(C)CO)C1` (stereo partly drawn), with under 10 nM.
Then `COc1c(C(C)n2cc(C)c3c(N)ncnc32)cc(Cl)c(C#N)c1C1CN(C(C)C)C1` (stereo not drawn), with under 10 nM; and `COc1c([C@H](C)n2nc(C)c3c(N)ncnc32)cc(Cl)c(C#N)c1C1CN(CC2CCOC2)C1` (stereo partly drawn), with under 10 nM.
On to `COc1c(C(C)n2nc(C(F)F)c3c(N)ncnc32)cc(C#N)c(C)c1C1CN(C[C@H](C)O)C1` (stereo partly drawn), for which the IC50 is under 10 nM.
Then `CCOc1c([C@@H](C)n2nc(C)c3c(N)ncnc32)cc(Cl)c(C#N)c1C1CN(C(C)CO)C1` (stereo partly drawn), with under 10 nM.
Then `CCOc1c(C(C)n2nc(C)c3c(N)ncnc32)cc(Cl)c(F)c1C1CN(C[C@H](C)O)C1` (stereo partly drawn), with under 10 nM; and `CCOc1c([C@H](C)n2nc(C)c3c(N)ncnc32)cc(Cl)c(C#N)c1C1CN(C(C)CO)C1` (stereo partly drawn), with under 10 nM.
Then `COc1c(C(C)n2nc(C)c3c(N)ncnc32)cc(Cl)c(C)c1-c1ccc(C(=O)N(C)C)nc1` (stereo not drawn), with under 10 nM.
Take `COc1c([C@@H](C)n2nc(C)c3c(N)ncnc32)cc(Cl)c(C#N)c1C1CN(C2CCOC2)C1` (stereo partly drawn): the IC50 is under 10 nM.
In the case of `COc1c([C@@H](C)n2nc(C(F)F)c3c(N)ncnc32)cc(Cl)c(F)c1C1CN(C)C1` it was under 10 nM; in that of `COc1c(C(C)n2nc(C)c3c(N)ncnc32)cc(Cl)c(C#N)c1C1CN(CCO)C1` (stereo not drawn), under 10 nM; in that of `CCOc1c([C@H](C)n2nc(C)c3c(N)ncnc32)cc(Cl)c(C#N)c1C1CN(CCOC)C1`, under 10 nM.
In the case of `COc1c([C@@H](C)n2nc(C)c3c(N)ncnc32)cc(Cl)c(C#N)c1C1CN(C(C)CO)C1` (stereo partly drawn) it was under 10 nM; in that of `CCOc1c(C(C)n2nc(C)c3c(N)ncnc32)cc(Cl)c(C)c1-c1ccc(C(=O)N(C)C)nc1` (stereo not drawn), under 10 nM.
